Columns and labels:
[1] = 808 nm laser, 3 min irradiation per cycle
Method: The nanoparticle solution filled with the BPBBT dot was fixed and irradiated by using an 808 nm laser. Meanwhile, the temperature of the solution was monitored in real time by using a thermal imaging camera. The laser was turned off after 3 min of irradiation, and the laser was turned on again when the temperature was recovered to the initial temperature. In this way, 5 cycles were repeated, and whether the highest temperature of each cycle was the same or not was observed so as to judge the stability of photothermal conversion.

[2] = BPBBT solution in 5% THF at the same concentration (50 μM); stated as known; cited from earlier work

maximum temperature [1]: about 48 °C
Substance: 4,8-bis[4-(N, N-bis(4-octyloxyphenyl)amino)phenyl]benzo[1,2-c:4,5-c′]bis([1,2,5]thiadiazole) [BPBBT]
photothermal conversion efficiency [2]: 22%

From patent publication US20240398999A1, “DC BIOMIMETIC MEMBRANE NANOPARTICLE LOADED WITH NIR-II AIE DYE, PREPARATION METHOD THEREFOR AND USE THEREOF” (SHENZHEN INSTITUTES OF ADVANCED TECHNOLOGY CHINESE ACADEMY …, priority 2023, published 2024)
